{"source": "the NIST ThermoML archive (doi:10.1016/j.tca.2012.07.004)", "assay": "xn = mol fraction of the nth substance listed", "conditions": "101 kPa, Liquid; for mass density: Vibrating tube method; for viscosity: Vibrating wire viscometry; for speed of sound: ultrasonic interferometer", "note": "Numbers after ± are expanded uncertainties.", "data": [{"smiles": "C[NH+](C)C.O=S(=O)([O-])O", "note": "[trimethylammonium hydrogen sulfate] + CN1CCCC1=O", "values": [{"measurement": "mass density", "setting": "298.15 K, x1 = 0.0183", "value": "1041.67 ± 0.81", "unit": "kg/m3"}, {"measurement": "mass density", "setting": "298.15 K, x1 = 0.0369", "value": "1053.11 ± 0.67", "unit": "kg/m3"}, {"measurement": "mass density", "setting": "298.15 K, x1 = 0.0964", "value": "1086.47 ± 0.64", "unit": "kg/m3"}, {"measurement": "mass density", "setting": "298.15 K, x1 = 0.138", "value": "1103.99 ± 0.57", "unit": "kg/m3"}, {"measurement": "mass density", "setting": "298.15 K, x1 = 0.2014", "value": "1128.96 ± 0.54", "unit": "kg/m3"}, {"measurement": "mass density", "setting": "298.15 K, x1 = 0.3115", "value": "1160.07 ± 0.54", "unit": "kg/m3"}, {"measurement": "mass density", "setting": "298.15 K, x1 = 0.3587", "value": "1170.49 ± 0.54", "unit": "kg/m3"}, {"measurement": "mass density", "setting": "298.15 K, x1 = 0.4311", "value": "1187.05 ± 0.55", "unit": "kg/m3"}, {"measurement": "mass density", "setting": "298.15 K, x1 = 0.5579", "value": "1214.39 ± 0.61", "unit": "kg/m3"}, {"measurement": "mass density", "setting": "298.15 K, x1 = 0.6955", "value": "1257.13 ± 0.71", "unit": "kg/m3"}, {"measurement": "mass density", "setting": "298.15 K, x1 = 0.775", "value": "1295.34 ± 0.83", "unit": "kg/m3"}, {"measurement": "mass density", "setting": "298.15 K, x1 = 0.843", "value": "1334.58 ± 0.96", "unit": "kg/m3"}, {"measurement": "mass density", "setting": "298.15 K, x1 = 0.9375", "value": "1403.82 ± 1.1", "unit": "kg/m3"}, {"measurement": "mass density", "setting": "298.15 K, x1 = 0.97", "value": "1439.41 ± 1.3", "unit": "kg/m3"}, {"measurement": "mass density", "setting": "298.15 K, x1 = 1", "value": "1467.58 ± 0.83", "unit": "kg/m3"}, {"measurement": "viscosity", "setting": "298.15 K, x1 = 0.0183", "value": "2.72 ± 0.18", "unit": "mPa·s"}, {"measurement": "viscosity", "setting": "298.15 K, x1 = 0.0369", "value": "3.99 ± 0.25", "unit": "mPa·s"}, {"measurement": "viscosity", "setting": "298.15 K, x1 = 0.0964", "value": "6.59 ± 0.4", "unit": "mPa·s"}, {"measurement": "viscosity", "setting": "298.15 K, x1 = 0.138", "value": "8.37 ± 0.51", "unit": "mPa·s"}, {"measurement": "viscosity", "setting": "298.15 K, x1 = 0.2014", "value": "10.5 ± 0.6", "unit": "mPa·s"}, {"measurement": "viscosity", "setting": "298.15 K, x1 = 0.3115", "value": "12.1 ± 0.7", "unit": "mPa·s"}, {"measurement": "viscosity", "setting": "298.15 K, x1 = 0.3587", "value": "12.2 ± 0.7", "unit": "mPa·s"}, {"measurement": "viscosity", "setting": "298.15 K, x1 = 0.4311", "value": "11.9 ± 0.7", "unit": "mPa·s"}, {"measurement": "viscosity", "setting": "298.15 K, x1 = 0.5579", "value": "10.3 ± 0.6", "unit": "mPa·s"}, {"measurement": "viscosity", "setting": "298.15 K, x1 = 0.6955", "value": "8.34 ± 0.5", "unit": "mPa·s"}, {"measurement": "viscosity", "setting": "298.15 K, x1 = 0.775", "value": "7.25 ± 0.44", "unit": "mPa·s"}, {"measurement": "viscosity", "setting": "298.15 K, x1 = 0.843", "value": "6.05 ± 0.37", "unit": "mPa·s"}, {"measurement": "viscosity", "setting": "298.15 K, x1 = 0.9375", "value": "5.39 ± 0.33", "unit": "mPa·s"}, {"measurement": "viscosity", "setting": "298.15 K, x1 = 0.97", "value": "5.24 ± 0.32", "unit": "mPa·s"}, {"measurement": "viscosity", "setting": "298.15 K, x1 = 1", "value": "5.1 ± 0.31", "unit": "mPa·s"}, {"measurement": "speed of sound", "setting": "298.15 K, x1 = 0.0183", "value": "1572 ± 20", "unit": "m/s"}, {"measurement": "speed of sound", "setting": "298.15 K, x1 = 0.0369", "value": "1573 ± 20", "unit": "m/s"}, {"measurement": "speed of sound", "setting": "298.15 K, x1 = 0.0964", "value": "1576 ± 20", "unit": "m/s"}, {"measurement": "speed of sound", "setting": "298.15 K, x1 = 0.138", "value": "1578 ± 20", "unit": "m/s"}, {"measurement": "speed of sound", "setting": "298.15 K, x1 = 0.2014", "value": "1580 ± 20", "unit": "m/s"}, {"measurement": "speed of sound", "setting": "298.15 K, x1 = 0.3115", "value": "1584 ± 20", "unit": "m/s"}, {"measurement": "speed of sound", "setting": "298.15 K, x1 = 0.3587", "value": "1586 ± 20", "unit": "m/s"}, {"measurement": "speed of sound", "setting": "298.15 K, x1 = 0.4311", "value": "1588 ± 20", "unit": "m/s"}, {"measurement": "speed of sound", "setting": "298.15 K, x1 = 0.5579", "value": "1590 ± 20", "unit": "m/s"}, {"measurement": "speed of sound", "setting": "298.15 K, x1 = 0.6955", "value": "1591 ± 20", "unit": "m/s"}, {"measurement": "speed of sound", "setting": "298.15 K, x1 = 0.775", "value": "1584 ± 20", "unit": "m/s"}, {"measurement": "speed of sound", "setting": "298.15 K, x1 = 0.843", "value": "1581 ± 20", "unit": "m/s"}, {"measurement": "speed of sound", "setting": "298.15 K, x1 = 0.9375", "value": "1573 ± 20", "unit": "m/s"}, {"measurement": "speed of sound", "setting": "298.15 K, x1 = 0.97", "value": "1566 ± 20", "unit": "m/s"}, {"measurement": "speed of sound", "setting": "298.15 K, x1 = 1", "value": "1564 ± 20", "unit": "m/s"}, {"measurement": "mass density", "setting": "303.15 K, x1 = 0.0183", "value": "1037.3 ± 0.74", "unit": "kg/m3"}, {"measurement": "mass density", "setting": "303.15 K, x1 = 0.0369", "value": "1048.09 ± 0.65", "unit": "kg/m3"}, {"measurement": "mass density", "setting": "303.15 K, x1 = 0.0964", "value": "1080.22 ± 0.63", "unit": "kg/m3"}, {"measurement": "mass density", "setting": "303.15 K, x1 = 0.138", "value": "1098.35 ± 0.57", "unit": "kg/m3"}, {"measurement": "mass density", "setting": "303.15 K, x1 = 0.2014", "value": "1122.72 ± 0.54", "unit": "kg/m3"}, {"measurement": "mass density", "setting": "303.15 K, x1 = 0.3115", "value": "1154.59 ± 0.53", "unit": "kg/m3"}, {"measurement": "mass density", "setting": "303.15 K, x1 = 0.3587", "value": "1161.24 ± 0.51", "unit": "kg/m3"}, {"measurement": "mass density", "setting": "303.15 K, x1 = 0.4311", "value": "1177.45 ± 0.54", "unit": "kg/m3"}, {"measurement": "mass density", "setting": "303.15 K, x1 = 0.5579", "value": "1204.95 ± 0.59", "unit": "kg/m3"}, {"measurement": "mass density", "setting": "303.15 K, x1 = 0.6955", "value": "1247.15 ± 0.67", "unit": "kg/m3"}, {"measurement": "mass density", "setting": "303.15 K, x1 = 0.775", "value": "1283.75 ± 0.8", "unit": "kg/m3"}, {"measurement": "mass density", "setting": "303.15 K, x1 = 0.843", "value": "1321.99 ± 0.93", "unit": "kg/m3"}, {"measurement": "mass density", "setting": "303.15 K, x1 = 0.9375", "value": "1389.78 ± 1.1", "unit": "kg/m3"}, {"measurement": "mass density", "setting": "303.15 K, x1 = 0.97", "value": "1426.11 ± 1.4", "unit": "kg/m3"}, {"measurement": "mass density", "setting": "303.15 K, x1 = 1", "value": "1463.56 ± 0.82", "unit": "kg/m3"}, {"measurement": "viscosity", "setting": "303.15 K, x1 = 0.0183", "value": "2.02 ± 0.13", "unit": "mPa·s"}, {"measurement": "viscosity", "setting": "303.15 K, x1 = 0.0369", "value": "2.9 ± 0.18", "unit": "mPa·s"}, {"measurement": "viscosity", "setting": "303.15 K, x1 = 0.0964", "value": "5.22 ± 0.32", "unit": "mPa·s"}, {"measurement": "viscosity", "setting": "303.15 K, x1 = 0.138", "value": "6.83 ± 0.41", "unit": "mPa·s"}, {"measurement": "viscosity", "setting": "303.15 K, x1 = 0.2014", "value": "8.56 ± 0.52", "unit": "mPa·s"}, {"measurement": "viscosity", "setting": "303.15 K, x1 = 0.3115", "value": "9.88 ± 0.6", "unit": "mPa·s"}, {"measurement": "viscosity", "setting": "303.15 K, x1 = 0.3587", "value": "9.93 ± 0.6", "unit": "mPa·s"}, {"measurement": "viscosity", "setting": "303.15 K, x1 = 0.4311", "value": "9.66 ± 0.58", "unit": "mPa·s"}, {"measurement": "viscosity", "setting": "303.15 K, x1 = 0.5579", "value": "8.28 ± 0.5", "unit": "mPa·s"}, {"measurement": "viscosity", "setting": "303.15 K, x1 = 0.6955", "value": "6.8 ± 0.41", "unit": "mPa·s"}, {"measurement": "viscosity", "setting": "303.15 K, x1 = 0.775", "value": "6.01 ± 0.36", "unit": "mPa·s"}, {"measurement": "viscosity", "setting": "303.15 K, x1 = 0.843", "value": "5.07 ± 0.31", "unit": "mPa·s"}, {"measurement": "viscosity", "setting": "303.15 K, x1 = 0.9375", "value": "4.66 ± 0.28", "unit": "mPa·s"}, {"measurement": "viscosity", "setting": "303.15 K, x1 = 0.97", "value": "4.59 ± 0.28", "unit": "mPa·s"}, {"measurement": "viscosity", "setting": "303.15 K, x1 = 1", "value": "4.48 ± 0.27", "unit": "mPa·s"}, {"measurement": "speed of sound", "setting": "303.15 K, x1 = 0.0183", "value": "1552 ± 20", "unit": "m/s"}, {"measurement": "speed of sound", "setting": "303.15 K, x1 = 0.0369", "value": "1553 ± 20", "unit": "m/s"}, {"measurement": "speed of sound", "setting": "303.15 K, x1 = 0.0964", "value": "1556 ± 20", "unit": "m/s"}, {"measurement": "speed of sound", "setting": "303.15 K, x1 = 0.138", "value": "1558 ± 20", "unit": "m/s"}, {"measurement": "speed of sound", "setting": "303.15 K, x1 = 0.2014", "value": "1562 ± 20", "unit": "m/s"}, {"measurement": "speed of sound", "setting": "303.15 K, x1 = 0.3115", "value": "1568 ± 20", "unit": "m/s"}, {"measurement": "speed of sound", "setting": "303.15 K, x1 = 0.3587", "value": "1571 ± 20", "unit": "m/s"}, {"measurement": "speed of sound", "setting": "303.15 K, x1 = 0.4311", "value": "1573 ± 20", "unit": "m/s"}, {"measurement": "speed of sound", "setting": "303.15 K, x1 = 0.5579", "value": "1577 ± 20", "unit": "m/s"}, {"measurement": "speed of sound", "setting": "303.15 K, x1 = 0.6955", "value": "1575 ± 20", "unit": "m/s"}, {"measurement": "speed of sound", "setting": "303.15 K, x1 = 0.775", "value": "1572 ± 20", "unit": "m/s"}, {"measurement": "speed of sound", "setting": "303.15 K, x1 = 0.843", "value": "1571 ± 20", "unit": "m/s"}, {"measurement": "speed of sound", "setting": "303.15 K, x1 = 0.9375", "value": "1567 ± 20", "unit": "m/s"}, {"measurement": "speed of sound", "setting": "303.15 K, x1 = 0.97", "value": "1563 ± 20", "unit": "m/s"}, {"measurement": "speed of sound", "setting": "303.15 K, x1 = 1", "value": "1560 ± 20", "unit": "m/s"}]}]}
